The values that follow come from patent US20130310387A1, “Monocyclic Heteroaryl Cycloalkyldiamine Derivatives” (NOVARTIS AG, priority 2012, published 2013).

Structures are written as SMILES.

In test [1] the test system is SLP-76 phosphorylation in human whole blood monocytes. As to the kind of experiment: FcR stimulation-induced SLP-76 phosphorylation in human whole blood monocytes. It is filed as cell-based. Particulars: Monocyte, 5 min, anti CD32 stimulation 5 min, flow cytometry, read-out: Fc Recepor stimulation induced SLP-76 phosphorylation in human whole blood monocytes, IC50. From the text: After lysis of erythrocytes and washings, the cell pellet was permeabilized with ice-cold methanol 90%. The permeabilized cells were washed and stained with anti CD14 (eBioscience) to detect monocytes and anti P-SLP76 ([…]) (BD Biosciences) and quantified by flow cytometry.
On the technique in general: Flow cytometry measures light scatter and fluorescence of single cells or particles in a stream.

For a further test, the system named is OCI-Ly10 cells. The experiment in a line: B-cell lymphoma cell proliferation (WST-1 assay), OCI-Ly10. Particulars: Homo sapiens, 72 h; OCI-Ly10, 3 days of incubation. It is filed as cell-based. On the procedure:
Cell proliferation was determined using the WST-1 assay (Roche, Mannheim, Germany), which measures the metabolic activity of the cells. Briefly, 5×10^5 TMD-8, OCI-Ly3, and OCI-Ly10 cells/well and 10×10^5 HBL-1 cells/well were seeded in triplicate in 96-well plates and were incubated with various concentrations of compounds to be tested for 3 days. The cell proliferation reagent WST-1 (10 μl/well) was added to the cells for 1-2 hours depending on the cell type which were cultured in 200 μl of medium. The absorbance was then measured with an enzyme-linked immunosorbent assay plate reader at a wavelength of 450 nm.
In general terms: Tetrazolium assays rely on reduction of a dye to a coloured formazan, in cell work by metabolically active cells.

The target in test [2] is Syk (2-635) (KSYK_HUMAN, P43405) (Homo sapiens, UniProt P43405). As to the kind of experiment: Syk enzyme assay (chip based microfluidic mobility shift assay). It is filed as biochemical. Particulars: 4 μM ATP, 4 nM Syk, 60 minutes at 30° C. On the procedure:
A number of compounds of the present invention were assayed in a chip based microfluidic mobilitiy shift assay. All assays were performed in 384 well microtiter plates. Each assay plate contained 8-point serial dilutions for 40 test compounds, as well as four 8-point serial dilutions of staurosporine as reference compound, plus 16 high- and 16 low controls. Liquid handling and incubation steps were done on a Thermo CatX workstation equipped with a Innovadyne Nanodrop Express. Between pipetting steps, tips were cleaned in wash cycles using wash buffer. The assay plates were prepared by addition of 50 nl per well of compound solution in 90% DMSO. […] Kinase reactions were incubated at 30° C. for 60 minutes and subsequently terminated by addition of 16 μl per well of stop solution (100 mM HEPES pH 7.5, 5% DMSO, 0.1% Caliper coating reagent, 10 mM EDTA, and 0.015% Brij35). Plates with terminated kinase reactions were transferred to the Caliper LC3000 workstations for reading. Phosphorylated and unphosphorylated peptides were separated using the Caliper microfluidic mobility shift technology. Briefly, samples from terminated kinase reactions were applied to the chip. Analytes are transported through the chip by constant buffer flow and the migration of the substrate peptide is monitored by the fluorescence signal of its label. Phosphorylated peptide (product) and unphosphorylated peptide (substrate) are separated in an electric field by their charge/mass ratio. Kinase activities were calculated from the amounts of formed phospho-peptide. […] values were determined from percent inhibition values at different compound concentrations by non-linear regression analysis.
Test compounds were dissolved in DMSO (10 mM) and transferred into 1.4 mL flat bottom or V-shaped Matrix tubes carrying a unique 2D matrix. The stock solutions were stored at […] if not used immediately. For the test procedure the vials were defrosted and identified by a scanner whereby a working sheet was generated that guided the subsequent working steps.
Compound dilutions were made in 96 well plates. This format enabled the assay of maximally 40 individual test compounds at 8 concentrations (single points) including 4 reference compounds. The dilution protocol included the production of “pre-dilution plates”, “master plates” and “assay plates”.
96 polypropylene well plates were used as pre-dilution plates. A total of 4 pre-dilution plates were prepared including 10 test compounds each on the plate positions A1-A10, one standard compound at A11 and one DMSO control at A12. All dilution steps were done on a HamiltonSTAR robot.
30 μL of individual compound dilutions including standard compound and controls of the 4 “pre-dilution plates” were transferred into a 384 “master plate” including the following concentrations 1′810, 362, 72.5, […], 14.5, 2.9, 0.58 and 0.12 μM, respectively in 90% of DMSO.
Identical “assay plates” were then prepared by pipetting […] each of compound dilutions of the “master plates” into 384-well “assay plates” by means of a HummingBird 384-channel dispenser. These plates were used directly for the assay which was performed in a total volume of 9.05 μL. This led to a final compound concentration of 10, 2.0, 0.4, 0.08, 0.016, 0.0032, 0.00064 and 0.000128 μM and a final DMSO concentration of 0.5% in the assay.

Turning to `NC(=O)c1nnc(N[C@@H]2CCCC[C@@H]2N)nc1Nc1cccc2cc[nH]c12` [Example 1.1, 3-((1R,2S)-2-Amino-cyclohexylamino)-5-(1H-indol-7-ylamino)-[1,2,4]triazine-6-carboxylic acid amide], the IC50 (as a rule, the concentration needed to halve the response being measured) came out at 0.378 µM in test [1] and 0.023 µM in test [2]. Further, the GI50 (as a rule, the concentration that inhibits growth by half) in the test on OCI-Ly10 cells worked out at 0.025 µM.
